# Conditions: buffer; pH 7.4; 6.0 h; 150.0 µM
row,SMILES,solubility kinetic [µg/mL]
1,C=CCON=C(C[C@H]1O[C@@H]2O[C@]3(C)CC[C@@H]4[C@H](C)CC[C@@H]([C@H]1C)[C@@]24OO3)[C@H]1O[C@@H]2O[C@]3(C)CC[C@H]4[C@H](C)CC[C@@H]([C@@H]1C)[C@@]24OO3,26.6
2,Cc1ccc(S(=O)(=O)Nc2ccccc2Nc2nc(-c3ccccc3)cs2)cc1,< 1
3,COc1cccc(CNCc2cccn2-c2nnc(N3CCN(c4ccccc4)CC3)s2)c1,5.15
4,Cc1cnc(CNc2nc(-c3ccccc3Cl)nc3ccccc23)cn1,41.9
5,CN(Cc1cnc2nc(N)nc(N)c2n1)c1ccc(C(=O)N[C@@H](CCC(=O)O)C(=O)O)cc1,> 67
6,Cc1ccc(S(=O)(=O)Nc2cnccc2C(=O)Nc2ccc(-n3cncn3)cc2)cc1,> 64
7,CCC(=O)NC(c1ccc(OC)cc1)c1cc(Cl)c2cccnc2c1O (stereo not drawn),< 1
8,O=C(O)c1ccnc2cc(C(OCC3CCC(F)(F)CC3)c3ccccc3Cl)[nH]c12 (stereo not drawn),> 64
9,CC(=O)OCCN1C(=O)c2c(C)nc3ccc(S(=O)(=O)N4CCOCC4)cc3c2C1=O,< 1
10,Cc1csc2c1c(=O)n(O)c(=O)n2Cc1ccccc1,> 43
11,Nc1c(C(=O)N2CCCCC2)sc(=S)n1-c1ccccc1,9.32
12,COc1ccnc(NC(=S)N2CCN(c3ncc(C(F)(F)F)cc3Cl)CC2)c1,1.24
13,COc1ccc(C(=O)c2sc(Nc3cccc(Cl)c3)nc2N)cc1,< 1
14,CC1=C(C(=O)Nc2ccccc2Cl)C(c2ccccc2Br)N=C(Nc2nc3ccccc3o2)N1 (stereo not drawn),< 1
15,O=C(Cc1ccc(Cl)c(Cl)c1)Nc1ccc(S(=O)(=O)Nc2ccccc2)cc1,< 1
16,Cc1cc(-c2nnc3n2CCCCC3)c(C)n1-c1cccnc1,32.5
17,CC(C)CN(C[C@@H](O)[C@H](Cc1ccccc1)NC(=O)O[C@@H]1CO[C@H]2OCC[C@H]21)S(=O)(=O)c1ccc(N)cc1,> 81
18,N#Cc1ccc(-c2ccc(CNc3ccc(C4CCNCC4)cc3)o2)cc1,35.2
19,CC(=O)Nc1cccc(-c2csc(Nc3cc(C)ccn3)n2)c1,< 1
20,NC(=O)N1CCCC(C(=O)N2CCCN(c3ccc(F)cc3)CC2)C1 (stereo not drawn),> 51
21,O=C(Cc1ccc(Cl)c(Cl)c1)Nc1ccc(S(=O)(=O)Nc2cccc(O)c2)cc1,< 1
22,O=C1Nc2ccccc2/C1=C\c1ccc([N+](=O)[O-])cc1,< 1
23,Cc1nn(Cc2ccc(Cl)cc2)c(C)c1NC(=O)c1cc(-c2ccc3c(c2)OCO3)on1,< 1
24,COc1ccc(-c2cc(-c3cccc(NC(C)=O)c3)cn3cncc23)cn1,6.93
25,Cc1nc(-c2ccco2)cc([C@H]2CN3CC[C@H]2C[C@@H]3CNC(=O)NC2CCCCC2)n1,> 63
26,O=C(O)CCC(=O)Nc1nc(-c2ccccc2)cs1,> 41
27,Fc1ccc(CNc2nc(-c3ccncc3)nc3ccccc23)cc1F,< 1
28,N#Cc1nc(-c2cccc3ccccc23)oc1Nc1ccccc1,< 1

row,SMILES,solubility kinetic [µg/mL]
1,COc1cc(-c2csc(N3CCC(C(N)=O)CC3)n2)cc(OC)c1OC,> 56
2,CCc1ccc(NC(=O)c2[nH]c(C)c(C(C)=O)c2C)cc1S(=O)(=O)Nc1ccc(Br)cc1,7.72
3,CC(=O)NCc1ccc(-c2csc(Nc3cccc(C)c3)n2)o1,29.8
4,COc1ccc(-n2nc(C3CCCN(C(=O)Cc4ccccn4)C3)[nH]c2=O)cc1 (stereo not drawn),> 58
5,Cc1ccc(NC(=O)c2c(N3CCCC3=O)c3cc(C)ccc3n2C)c(C)c1,< 1
6,Cc1ccc2oc(NC3=NC4(CCCC4)C4=C(CCCC4=O)N3)nc2c1,< 1
7,Cc1ccc(NS(=O)(=O)c2cc3c(cc2N[C@H](C)CO)NC(=O)CC3)cc1C,> 60
8,Cc1cc(-c2nnc3n2CCCCC3)c(C)n1-c1ccc([N+](=O)[O-])cc1,> 52
9,COc1ccc(C)cc1-n1nnnc1Sc1ncnc2scc(-c3ccc(Br)cc3)c12,2.38
10,Nc1nc2c(s1)C(c1ccccc1)CC(=O)N2 (stereo not drawn),26
11,CCN(CC)S(=O)(=O)c1ccc(N2CCCC2)c(NS(=O)(=O)c2ccc(C)cc2)c1,4.02
12,Cc1ccc(S(=O)(=O)Nc2cnccc2C(=O)Nc2cccc3ccccc23)cc1,46.4
13,COc1cc2c(cc1Oc1cccc(N(C)C)c1)NC(=O)C21CCN(c2cnccn2)CC1,2.21
14,COc1c(O)ccc2c1CN1CCc3cc4c(cc3[C@@H]1C2)OCO4,19.6
15,COc1ccc(OC)c(-c2cc(C(=O)N3CCN(c4ncccn4)CC3)c3ccccc3n2)c1,24.5
16,CCOC(=O)N1CCN(C(=O)Cn2sc3nc(C)cc(C)c3c2=O)CC1,39
17,Fc1ccc(Nc2nc(-c3ccnc4ccccc34)nc3ccccc23)cc1F,< 1
18,Fc1ccc(CNc2cc3c(cn2)CN(Cc2ccncc2)CCN3)cc1,36.6
19,CC(=O)N1CCc2c(sc3c2c(=O)n(-c2ccccc2)c(=O)n3CC(=O)c2ccccc2)C1,3.53
20,Cc1ccc(S(=O)(=O)Nc2cnccc2C(=O)Nc2nc(-c3ccccc3F)cs2)cc1,< 1
21,COc1ccc(-c2cc3nccn3c(Nc3ncccc3C(N)=O)n2)cc1OC,24.2
22,COc1ccc(CN2CCN(C(=O)c3cc4c(s3)CCC4)CC2)cc1,> 53
23,Cc1ncc2c(c1CNC(=O)Cn1cnc3ccccc3c1=O)CCNC2,28.1
24,CC(C)c1ccc(CC(=O)N2CCCc3ncc(C(=O)Nc4cccnc4)cc32)cc1,27.7
25,Cc1sc2ncnc(Sc3nnnn3-c3ccccc3)c2c1-c1ccccc1,0.29
26,COc1ccc(-n2nc(C3CCCN(C(=O)c4ccc(C)cc4)C3)[nH]c2=O)cc1 (stereo not drawn),39.4
27,Cc1ccnc(NC(=O)C2CC(=O)N(c3n[nH]c4cc(Br)ccc34)C2)c1 (stereo not drawn),< 1

# Continued, values first:
row,solubility kinetic [µg/mL],SMILES
1,< 1,CC(Nc1ncnc2c1cnn2-c1cccc(Cl)c1)c1ccccc1 (stereo not drawn)
2,1.46,N#CC1CCN(c2nc(-c3ccc(Br)cc3)cs2)CC1
3,< 1,Cc1nn2c(c1-c1ccccc1OCc1ccccc1)N(C(=O)Cc1ccc3c(c1)OCO3)CCC2
4,2.53,O=[S+]([O-])(Nc1nccs1)c1ccc(NCc2cccc(Cl)c2)cc1
5,< 1,CN(C(=O)CSc1nc2ccc(NC(=O)c3ccc(F)cc3)cc2s1)c1ccccc1
6,1.26,Cc1nn(CCc2nc(-c3ccccc3)cs2)c2[nH]c(=O)cc(C(F)(F)F)c12
7,1.07,Cc1cnc(-c2ccccc2C(F)F)nc1NCc1ccc(-c2cccnc2)cc1
8,< 1,O=C(Nc1ccc(Cl)cc1)Nc1ccc(Cl)c(Cl)c1
9,< 1,CCN(C(=O)C(NS(=O)(=O)c1ccc(Br)s1)c1ccccc1)c1ccc(C)c(C)c1 (stereo not drawn)
10,> 100,CC[C@H]1NC(=O)[C@@H](NC(=O)c2ncccc2O)[C@@H](C)OC(=O)[C@H](c2ccccc2)NC(=O)[C@@H]2CC(=O)CCN2C(=O)[C@H](Cc2ccccc2)N(C)C(=O)[C@@H]2CCCN2C1=O
11,< 1,COC(=O)c1ccc([C@H]2c3[nH]c4ccccc4c3C[C@H](C(=O)OC)N2C(=O)CCl)cc1
12,< 1,CCOc1ccc(-c2nc(SCC(=O)Nc3ccc(C)c(C)c3)n3[nH]c(=O)cc3n2)cc1
13,32.6,Cn1cc(Nc2cnccc2C(=O)O)c2cccnc21
14,7.3,O=C1Nc2c(Cl)cccc2/C1=C\c1cc(Cl)c(O)c(Cl)c1
15,4.04,CCOC(=O)CCNc1cc(N2CCc3ccccc3CC2)nc(-c2cccnc2)n1
16,< 1,O=C(Nc1ccc(C(=O)Nc2nccs2)cc1)c1ccc2ccccc2c1
17,> 86,COc1cc(N2CCC(N3CCN(C)CC3)CC2)ccc1Nc1ncc(Cl)c(Nc2ccccc2P(C)(C)=O)n1
18,> 57,NCC(=O)Nc1cncc(-c2nn3c(=O)cc(N4CCNCC4)nc3s2)c1
19,< 1,COC(=O)CSc1nc(-c2ccccc2)cc(-c2ccco2)c1C#N
20,< 1,O=C(Nc1ncc(-c2ccccc2)s1)c1ccc(-c2cccc([N+](=O)[O-])c2)o1
21,< 1,Cc1ccc(Nc2nc(-c3ccncc3)nc3ccccc23)cc1F
22,13.9,c1coc(-c2nc3ccncc3[nH]2)c1

row,solubility kinetic [µg/mL],SMILES
1,6.13,COc1ccc(S(=O)(=O)N2CCOCC2)cc1NC(=O)c1cccc(-n2cccc2)c1
2,3.79,COc1cc(Cl)c(C)cc1Nc1c2c(nc3ccccc13)CCC2
3,< 1,Cc1ccccc1C(=O)N1CCc2cc(-c3nc(NC(=O)c4ccc5c(c4)OCO5)sc3C)ccc21
4,> 45,NC(=O)C1CCN(c2nc(-c3cccc(N)c3)cs2)CC1
5,1.2,COc1cccc(C(=O)Nc2nc(-c3nnn(-c4cc(C)ccc4C)c3C)ns2)c1
6,31.2,COC(=O)C1=C(C)NC(=O)CC1C(=O)Nc1ccc(Cl)cc1 (stereo not drawn)
7,< 1,COc1cccc(C(=O)Nc2ccc3oc(-c4ccc5ccccc5c4)nc3c2)c1
8,11.7,O=C(O)c1ccc(Nc2nc(-c3cc4ccccc4oc3=O)cs2)cc1O
9,< 1,Cc1ccc(S(=O)(=O)Nc2ccccc2N2CCCCC2)cc1
10,< 1,COc1ccc2[nH]c(=O)c(-c3noc(-c4cccs4)n3)cc2c1
11,> 65,Cc1cc(NS(=O)(=O)c2ccc(C(=O)NCc3ccc(Cl)c(Cl)c3)cc2)no1
12,> 55,CCS(=O)(=O)N1CC(CC#N)(n2cc(-c3ncnc4[nH]ccc34)cn2)C1
13,7.97,O=C(NC1CCCc2c1[nH]c1ccccc21)c1ccccc1 (stereo not drawn)
14,39,CC(=O)c1c(C)[nH]c(C(=O)Nc2ccc(OCCCN(C)C)c(S(=O)(=O)Nc3ccc(Br)cc3)c2)c1C
15,> 87,CCN(CCCOc1ccc2c(Nc3cc(CC(=O)Nc4cccc(F)c4)[nH]n3)ncnc2c1)CCOP(=O)(O)O
16,> 59,COc1ccc(C2=Nc3ccc(C)cc3C(c3ccccc3)N2CC(=O)NN)cc1 (stereo not drawn)
17,> 49,Cc1cc(NS(=O)(=O)c2ccc3c(c2)CCC(=O)N3)ccc1F
18,< 1,CCNc1oc(-c2cccc3ccccc23)nc1C#N
19,36.4,Cn1cc(Cl)c(C2N=C(Nc3nc4ccccc4o3)NC3=C2C(=O)CCC3)n1 (stereo not drawn)
20,> 50,O=C(c1ccc2c(c1)ncn2-c1cccc(Cl)c1)N1CCCCC1
21,35.9,Cc1cc(C)nc(NC(=S)N2CCN(Cc3cccc(C(F)(F)F)c3)CC2)c1

# From PubChem BioAssay AID1645848
